Data on nine molecules can be found in patent US20030207830A1, “Mutant NDP kinases for antiviral nucleotide analog activation and therapeutic uses thereof” (priority 2002, published 2003).

For assay [1], the target named is T1, Dictyostelium discoideum NDP kinase inactive variant EI-N119S (H122G-F64W-N119S) (Dictyostelium discoideum, UniProt P22887, F64W/H122G/N119S).
T1 construct: made in house
As to the kind of experiment: biochemical. Format: binding. The procedure: (§1) The binding constants were determined at equilibrium by recording the increase in fluorescence (Schneider, 2000).
(§2) Analog binding affinity was measured using a variant of Dd-NDPK (EI) as described (Schneider, 2000). […] The mutation N119S was inserted in EI in order to measure the nucleotide affinity by fluorescence titration.
(§3) Altered bases as compared to the wild type sequence are underlined in bold. Sequences were checked by automatic sequencing. The mutant EI-N119S was obtained by mutation of the previously described F64W-H122G mutated NDP kinase (here called EI) (Schneider 2000).

Assay [2] has as its target T2, Dictyostelium discoideum NDP kinase inactive variant EI (H122G-F64W) (Dictyostelium discoideum, UniProt P22887, F64W/H122G).
T2 construct: made in house
As to the kind of experiment: biochemical. Type of assay: binding. As to the method: as §1, §2, §3

In assay [3] the target is T3, Dictyostelium discoideum NDP kinase (Dd-NDPK), wild type (Dictyostelium discoideum, UniProt P22887).
T3 construct: made in house
As to the kind of experiment: Pre-steady-state phosphotransfer, fluorescence stopped-flow. As to conditions: catalytic efficiency of phosphotransfer, wt. Format: biochemical. The procedure: (§4) (A) Kinetics of reaction of phosphorylated Dictyostelium wild type and N119S NDP kinases by 100 μM Acyclovir diphosphate (Acy-DP). The phosphorylated enzyme was prepared with a stoichiometry #1 as described (Deville-Bonne 1996). The kinases were preincubated with ATP in excess in buffer T (50 mM Tris-HCl, pH 7.5, 5 mM MgCl2 and 75 mM KCl). The increase in fluorescence upon mixing the phospho-enzyme (1 μM, final concentration) with Acy-DP in buffer T at 20° C. was monitored with a stopped-flow. The solid lines represent the best fit of each curve to a monoexponential.
(§5) (B) Concentration dependence of the rate constant on Acy-DP concentation. The pseudo-first order rate constant for the reaction (kobs) was plotted against Acy-DP.
(§6) All numbers in italics have already been published (Schneider, 1998, 2000) The kinetic constants were measured at the pre-steady-state level using a fluorescence stopped-flow device. The binding constants were determined at equilibrium by recording the increase in fluorescence (Schneider, 2000). Values are the average of three independent determinations.
(§7) Wild type human NDPK-A and the mutants were expressed and purified according to Schneider et al., 2000, Mol Pharm. Recombinant wild type and mutant Dd-NDPK were obtained as described (Schneid, 1998a), except for N119Y NDP kinase which was partially purified by Q sepharose FF chromatography. Each protein was characterized by […] electrophoresis. The concentration of 17 kDa subunits of the enzyme was either determined by Bradford assay ([…]) or using an absorbance coefficient of ΔA^280=1.249 for a 1 mg/mL solution of human wild type and N115S NDPK-A, and =0.55 for wild type and mutant N119S, N119T Dd-NDP kinases, respectively.
(§8) As the diphosphate form of analogs were not always available, the triphosphate analogs were used to study phosphate transfer in reaction as in Scheme I. Experiments were performed with an Hi-Tech DX2 microvolume stopped-flow reaction (Schneider, 1998) at Aexc=296 nm (for Ado derivatives) or […] (for other nucleotides), 2 mm excitation slit and a 320 nm cutoff filter at the emission. After mixing NDPK (1 μM) and NTP or an analogTP (10-500 μM), the intrinsic protein fluorescence was recorded for 10-200 sec. In each experiment, 400 pairs of data were recorded, and the data from 3-4 identical experiments were averaged and fitted to a number of non-linear analytical equations using the software provided by Hi-Tech. All curves fitted to single exponentials.
(§9) The data were analyzed using the reaction scheme: [drawing 1]
(§10) In both the forward and the reverse reactions, the product concentration remains very low, thus the product binding can be neglected, and the observed single step could be attributed to the phosphotransfer (Schneider, 1998). The rate of this observed single step is: [formula]
(§11) and reaches a limiting value (k+2) at NTP saturation. Saturation could not be obtained with the concentrations of any NTP used here. Therefore, catalytic efficiencies of phosphorylation (CEphos=k+2/(k−1/k+1)=k+2/KS) were measured, which are equivalent to second order constants and allow a reliable comparison of a variety of NDP kinase substrates.

Assay [4] has as its target T4, Dictyostelium discoideum NDP kinase (Dd-NDPK) variant N119S, SEQ ID NO: 1 (Dictyostelium discoideum, UniProt P22887, N119S).
T4 construct: made in house
Described as above. Type of assay: biochemical. The settings on record: catalytic efficiency of phosphotransfer, N119S, pre-steady state. The procedure:
as §4, §5, §6, §7, §8, §9, §10, §11

Assay [5] deals with T5, Dictyostelium NDP Kinase N119S (Dictyostelium discoideum, UniProt P22887, N119S).
T5 construct: made in house
The assay is described as follows: Pre-steady-state fluorescence stopped-flow phosphotransfer from nucleoside triphosphates, N119S Dd-NDPK. The settings on record: pre-steady state, stopped-flow; average of three determinations. Type of assay: biochemical. As to the method:
as §6, §8, §9, §10, §11

The target in assay [6] is T6, Dictyostelium NDP Kinase wt (Dictyostelium discoideum, UniProt P22887).
T6 construct: made in house
As to the kind of experiment: Pre-steady-state fluorescence stopped-flow phosphotransfer from nucleoside triphosphates, wild type Dd-NDPK. Format: biochemical. The settings on record: average of three determinations. As to the method:
as §1
After mixing NDPK (1 μM) and NTP or an analogTP (10-500 μM), the intrinsic protein fluorescence was recorded for 10-200 sec. In each experiment, 400 pairs of data were recorded, and the data from 3-4 identical experiments were averaged and fitted to a number of non-linear analytical equations using the software provided by Hi-Tech.
as §9
The rate of this observed single step is: [formula]
(§12) and reaches a limiting value (k+2) at NTP saturation. […] Therefore, catalytic efficiencies of phosphorylation (CEphos=k+2/(k−1/k+1)=k+2/KS) were measured, which are equivalent to second order constants and allow a reliable comparison of a variety of NDP kinase substrates.

Assay [7] has as its system human pancreatic adenocarcinoma cell lines. As to conditions: 4-fold overexpression of mitochondrial deoxyguanosine kinase; cited from earlier work.
Assay [8] addresses T7, Inactive-N119S Dd-NDPK (EI-N119S) (Dictyostelium discoideum, UniProt P22887, F64W/H122G/N119S).
T7 construct: made in house
As to the kind of experiment: Equilibrium fluorescence titration of nucleotide binding, inactive Dd-NDPK variant with N119S. As to conditions: relative affinity of NTP for both enzymes. The procedure:
as §6
In contrast to what is observed with natural nucleotides, the Ser mutation specifically improves the catalytic efficiency with nucleotides analogs as shown in Table I; ddGTPs and AZT-TP react, respectively, 1.5 and 4 times faster with the N119S enzyme. […] Analog binding affinity was measured using a variant of Dd-NDPK (EI) as described (Schneider, 2000). This mutant (H122G-F64W) lacks the catalytic histidine, and a tryptophan replaces the phenylalanine stacking on the base in the active site (Schneider, 2000). The mutation N119S was inserted in EI in order to measure the nucleotide affinity by fluorescence titration. The Ser contribution to the binding was evaluated from the relative affinity of NTP for both enzymes (Table I).
for N119S, N119T and N119Y mutations, respectively. Altered bases as compared to the wild type sequence are underlined in bold. Sequences were checked by automatic sequencing. The mutant EI-N119S was obtained by mutation of the previously described F64W-H122G mutated NDP kinase (here called EI) (Schneider 2000).

Assay [9] concerns the target T8, human NDP kinase A (NDPK-A) variant L55H-N115S, SEQ ID NO: 3 (Homo sapiens, UniProt P15531, L55H/N115S).
T8 construct: made in house; host or cells: E. coli
The assay is described as follows: Pre-steady-state phosphotransfer, fluorescence stopped-flow. Type of assay: biochemical. As to conditions: L55H-N115S, pre-steady state. The procedure:
(§13) FIG. 3 depicts the catalytic efficiency of NDPK-A and mutants for nucleoside analogs. The rates of phosphorylation of pure recombinant NDP kinases (1 μM) were measured at the pre-steady state in a fluorescence stopped-flow with d4T-TP (10 to 80 μM). The catalytic efficiency (expressed in M^−1s^−1) was determined from the variation of the rate as a function of analog as shown in FIG. 2 (▾, NDPK-A, ♦ L55H, ● N115S, ▪ L55H-N115S).
(§14) The activity assays were performed at the pre-steady state level.
(§15) R, the specificity change, is the ratio of the catalytic efficiencies (for analog versus natural nucleotide) of the mutant compared to the wild type enzyme.
as §7
as §8, with “Hi-Tech.” for “Hi-Tech. All curves fitted to single exponentials.”
as §9, §10, §12

Assay [10] has as its target T9, human NDP kinase A (NDPK-A) variant L55H (Homo sapiens, UniProt P15531, L55H).
T9 construct: made in house; host or cells: E. coli
The description is as above. Format: biochemical. The settings on record: L55H, pre-steady state. As to the method: as §13, §14, §15, §7
as §8, with “Hi-Tech.” for “Hi-Tech. All curves fitted to single exponentials.”
as §9, §10, §12

Assay [11] addresses T10, human NDP kinase A (NDPK-A) variant N115S, SEQ ID NO: 2 (Homo sapiens, UniProt P15531, N115S).
T10 construct: made in house; host or cells: E. coli
Described as above. Format: biochemical. As to conditions: N115S, pre-steady state. The procedure: as §13, §14, §15, §7
as §8, with “Hi-Tech.” for “Hi-Tech. All curves fitted to single exponentials.”
as §9, §10, §12

Assay [12] addresses T11, human NDP kinase A (NDPK-A, nm23-H1), wild type (Homo sapiens, UniProt P15531).
T11 construct: made in house
The assay is described as above. Format: biochemical. As to conditions: catalytic efficiency of phosphotransfer, NDPK-A, pre-steady state. As to the method: as §13, §14, §7
as §8, with “Hi-Tech.” for “Hi-Tech. All curves fitted to single exponentials.”
as §9, §10, §12

The conditions of assay [13]: Dd-NDPK mutant; cited from earlier work.
Setting [14] is: catalytic efficiency of phosphotransfer.

Substitutions are numbered along the chain they refer to. In names and notes the source's numbering stands.

T3 sequence (P22887 whole entry): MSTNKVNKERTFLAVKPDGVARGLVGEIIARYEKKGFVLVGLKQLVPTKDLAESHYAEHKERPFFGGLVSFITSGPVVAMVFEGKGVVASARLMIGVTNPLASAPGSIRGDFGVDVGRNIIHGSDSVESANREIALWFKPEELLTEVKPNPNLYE
T6 sequence (P22887 whole entry): as above
T1 sequence (P22887 whole entry F64W/N119S/H122G): as the sequence (P22887 whole entry) above, with F64W, N119S, H122G counted along it
T2 sequence (P22887 whole entry F64W/H122G): as the sequence (P22887 whole entry) above, with F64W, H122G counted along it
T5 sequence (P22887 whole entry N119S): as the sequence (P22887 whole entry) above, with N119S counted along it
T4 sequence (P22887 whole entry N119S): as the sequence (P22887 whole entry) above, with N119S counted along it
T8 sequence (P15531 whole entry L55H/N115S): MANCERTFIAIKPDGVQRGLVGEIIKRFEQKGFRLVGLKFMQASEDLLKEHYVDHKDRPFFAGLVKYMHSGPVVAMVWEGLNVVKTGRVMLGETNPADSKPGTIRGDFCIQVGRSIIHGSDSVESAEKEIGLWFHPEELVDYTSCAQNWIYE
T10 sequence (P15531 whole entry N115S): as the sequence (P15531 whole entry L55H/N115S) above, with H55L counted along it
T9 sequence (P15531 whole entry L55H): as the sequence (P15531 whole entry L55H/N115S) above, with S115N counted along it
T7 sequence (P22887 whole entry F64W/N119S/H122G): as the sequence (P22887 whole entry) above, with F64W, N119S, H122G counted along it
T11 sequence (P15531 whole entry): as the sequence (P15531 whole entry L55H/N115S) above, with H55L, S115N counted along it

For orientation: Kd means the concentration at which binding is half-saturated. As for `Nc1ncnc2c1ncn2[C@@H]1O[C@H](COP(=O)(O)OP(=O)(O)OP(=O)(O)O)[C@@H](O)[C@H]1O` [ATP], the figures for the Kd in assay [1] and in [2] were 2400 nM and 200 nM, respectively. Further, the values for the k2/Ks in assay [3] and in assay [4] were 4.5e+06 M⁻¹ s⁻¹ and 250000 M⁻¹ s⁻¹, respectively. For the same molecule, the “k2/Ks N119S (catalytic efficiency of phosphotransfer)” value (“k2/Ks N119S” below) in [5] turned out to be 250000 M⁻¹ s⁻¹. The “k2/Ks wt (catalytic efficiency of phosphotransfer)” value (“k2/Ks wt” below) in assay [6] was found to be 4.5e+06 M⁻¹ s⁻¹.
As for `Nc1nc(Cl)nc2c1ncn2[C@H]1C[C@H](O)[C@@H](CO)O1` [CdA], the sensitivity of cells result in [7] is “enhanced sensitivity”.
As for `Nc1nc2c(ncn2[C@@H]2O[C@H](COP(=O)(O)OP(=O)(O)OP(=O)(O)O)[C@@H](O)[C@H]2O)c(=O)[nH]1` [GTP], the Kd in assay [1] was found to be 1100 nM; in assay [2], 150 nM. Besides, the k2/Ks in assay [3] was 8e+06 M⁻¹ s⁻¹; in assay [4] it was 700000 M⁻¹ s⁻¹. For the same molecule, in assay [5], the “k2/Ks N119S” value is 700000 M⁻¹ s⁻¹. For the same molecule, the “k2/Ks wt” value in [6] is 8e+06 M⁻¹ s⁻¹.
On to `Nc1nc2c(ncn2COCCOP(=O)(O)OP(=O)(O)OP(=O)(O)O)c(=O)[nH]1` [acyclovirTP, acyclovir-TP], for which the “factor by which Ser 119 reinforces affinity (EI-N119S versus EI)” value in assay [8] is 10 fold. In addition, the “k2/Ks N119S” value in assay [5] worked out at 1650 M⁻¹ s⁻¹.
For `Nc1nc2c(ncn2[C@@H]2O[C@H](CO)[C@@H](O)[C@@H]2O)c(=O)[nH]1` [araG], the sensitivity of cells entry in [7] is reported as “enhanced sensitivity”.
Take `Nc1nc2c(ncn2[C@@H]2O[C@H](CO)[C@@H](O)C2(F)F)c(=O)[nH]1` [dFdG]: the sensitivity of cells entry in assay [7] is “enhanced sensitivity”.
For `Cc1cn([C@H]2C[C@H](O)[C@@H](COP(=O)(O)OP(=O)(O)OP(=O)(O)O)O2)c(=O)[nH]c1=O` [dTTP], the “factor of rate versus wild type NDPK-A” value was 0.33 in assay [9], 1.8 in assay [10] and 0.08 in [11]. For the same molecule, the k2/Ks in [9] (setting [14]) stood at 450000 M⁻¹ s⁻¹; in [10] (setting [14]), 2e+06 M⁻¹ s⁻¹; in assay [11] (setting [14]), 100000 M⁻¹ s⁻¹; in assay [12], 1.2e+06 M⁻¹ s⁻¹; in [3], 5.7e+06 M⁻¹ s⁻¹; in [4], 430000 M⁻¹ s⁻¹. Moreover, the Kd worked out at 5200 nM in assay [1] and 1200 nM in assay [2]. The “k2/Ks N119S” value in assay [5] worked out at 430000 M⁻¹ s⁻¹. In addition, the “k2/Ks wt” value in assay [6] is 5.7e+06 M⁻¹ s⁻¹.

B1: K16A: Dd-NDPK with Lys 16 mutated into Ala (Schneider 2001) (protein, UniProt P22887 1-155, looked up, variant K16A)
Nucleoside diphosphate …: MSTNKVNKERTFLAVAPDGVARGLVGEIIARYEKKGFVLVGLKQLVPTKDLAESHYAEHKERPFFGGLVSFITSGPVVAMVFEGKGVVASARLMIGVTNPLASAPGSIRGDFGVDVGRNIIHGSDSVESANREIALWFKPEELLTEVKPNPNLYE
On to B1, for which, in assay [13], the “factor of decrease of catalytic constant of phosphotransfer” value is 100.

B2: N119A: Dd-NDPK with Asn 119 mutated into Ala (Schneider 2001) (protein, UniProt P22887 1-155, looked up, variant N119A)
Nucleoside diphosphate …: B1 Nucleoside diphosphate … with A16K, N119A
Consider B2, for which the “effect of mutation on kinetic parameters of the enzyme” value in assay [13] is reported as “did not affect significantly”.
